Values joined by “and” are separate entries in the source; they are usually repeats but may differ in a detail not shown here. Equal entries are not always repeated.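 Growth conditions: 96-well plates. Treatment: test compound, 48 hours, 5 concentrations. Analysis: linear interpolation between bracketing concentrations; unreached endpoints set to highest concentration. At the GI50, growth is halved. TGI is the concentration that stops growth completely.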
Columns and labels:
Assay in all cases: NCI tumour cell line growth inhibition, 48 h
CCRF-CEM leukemia = system: CCRF-CEM leukemia
NCI-H23 lung = system: NCI-H23 lung
SK-MEL-28 melanoma = system: SK-MEL-28 melanoma
DU-145 prostate = system: DU-145 prostate
786-0 renal = system: 786-0 renal
OVCAR-8 ovarian = system: OVCAR-8 ovarian
HOP-62 NSCLC = system: HOP-62 NSCLC
SR leukemia = system: SR leukemia
LOX IMVI melanoma = system: LOX IMVI melanoma
MDA-MB-435 = system: MDA-MB-435
K-562 leukemia = system: K-562 leukemia
UACC-257 melanoma = system: UACC-257 melanoma
A498 renal = system: A498 renal
MOLT-4 leukemia = system: MOLT-4 leukemia
KM12 colon = system: KM12 colon
OVCAR-3 ovarian = system: OVCAR-3 ovarian
SN12C renal = system: SN12C renal
NCI/ADR-RES ovarian = system: NCI/ADR-RES ovarian
ACHN renal = system: ACHN renal
SNB-75 CNS = system: SNB-75 CNS
T-47D breast = system: T-47D breast
HCC-2998 colon = system: HCC-2998 colon
HCT-116 colon = system: HCT-116 colon
SNB-19 CNS = system: SNB-19 CNS
SK-OV-3 ovarian = system: SK-OV-3 ovarian
PC-3 prostate = system: PC-3 prostate
NCI-H460 lung = system: NCI-H460 lung
TK-10 renal = system: TK-10 renal
MALME-3M melanoma = system: MALME-3M melanoma
U251 CNS = system: U251 CNS
NCI-H226 lung = system: NCI-H226 lung
MCF7 breast = system: MCF7 breast
NCI-H522 lung = system: NCI-H522 lung
RPMI-8226 leukemia = system: RPMI-8226 leukemia
SK-MEL-5 melanoma = system: SK-MEL-5 melanoma
UACC-62 melanoma = system: UACC-62 melanoma
SF-295 CNS = system: SF-295 CNS
COLO 205 colon = system: COLO 205 colon
HT29 colon = system: HT29 colon
MDA-MB-231 breast = system: MDA-MB-231 breast
SF-539 CNS = system: SF-539 CNS
HL-60(TB) leukemia = system: HL-60(TB) leukemia
OVCAR-5 ovarian = system: OVCAR-5 ovarian
HOP-92 NSCLC = system: HOP-92 NSCLC
UO-31 renal = system: UO-31 renal
HS 578T breast = system: HS 578T breast
IGROV1 ovarian = system: IGROV1 ovarian
RXF 393 renal = system: RXF 393 renal
M14 melanoma = system: M14 melanoma
HCT-15 colon = system: HCT-15 colon
OVCAR-4 ovarian = system: OVCAR-4 ovarian
SW-620 colon = system: SW-620 colon
SF-268 CNS = system: SF-268 CNS
CAKI-1 renal = system: CAKI-1 renal
EKVX NSCLC = system: EKVX NSCLC
A549 NSCLC = system: A549 NSCLC
BT-549 breast = system: BT-549 breast
SK-MEL-2 melanoma = system: SK-MEL-2 melanoma

`C[C@H](NC(=O)c1c(N)nn2cccnc12)c1cc2cccc(C#Cc3cnn(C)c3)c2c(=O)n1-c1ccccc1` was tested, and the GI50 (CCRF-CEM leukemia) was 0.588 µM and 0.357 µM, the TGI (CCRF-CEM leukemia) was over 100 µM and the GI50 (NCI-H23 lung) was 4.99 µM and 11 µM. The TGI (NCI-H23 lung) was > 10 µM and 24.7 µM, the GI50 (SK-MEL-28 melanoma) was 3.08 µM and 3.9 µM and the TGI (SK-MEL-28 melanoma) was > 10 µM and 38.6 µM. The GI50 (DU-145 prostate) was 8.71 µM and 7.69 µM, the TGI (DU-145 prostate) was over 100 µM and the GI50 (786-0 renal) was 3.97 µM and 3.56 µM. The TGI (786-0 renal) was > 10 µM and 16.9 µM, the GI50 (OVCAR-8 ovarian) was > 10 µM and 12.6 µM and the TGI (OVCAR-8 ovarian) was over 100 µM. The GI50 (HOP-62 NSCLC) was 8.58 µM, the TGI (HOP-62 NSCLC) was over 10 µM and the GI50 (SR leukemia) was 3.59 µM and 2.4 µM. For the same compound, the TGI (SR leukemia) was over 100 µM, the GI50 (LOX IMVI melanoma) was 3.44 µM and the TGI (LOX IMVI melanoma) was > 10 µM and 40 µM. For the same compound, the GI50 (MDA-MB-435) was 5.87 µM and 5.57 µM, the TGI (MDA-MB-435) was > 10 µM and 60.8 µM and the GI50 (K-562 leukemia) was > 10 µM and 10.4 µM. For the same compound, the TGI (K-562 leukemia) was over 100 µM, the GI50 (UACC-257 melanoma) was > 10 µM and 9.9 µM and the TGI (UACC-257 melanoma) was > 10 µM and 39.2 µM. For the same compound, the GI50 (A498 renal) was 1.17 µM and 0.241 µM, the TGI (A498 renal) was 8.24 µM and 1.79 µM and the GI50 (MOLT-4 leukemia) was 2.17 µM and 1.96 µM. The TGI (MOLT-4 leukemia) was > 10 µM and 6.55 µM, the GI50 (KM12 colon) was 5.98 µM and 9.53 µM and the TGI (KM12 colon) was > 10 µM and 61.4 µM. The GI50 (OVCAR-3 ovarian) was 4.27 µM and 4.6 µM, the TGI (OVCAR-3 ovarian) was > 10 µM and 27.1 µM and the GI50 (SN12C renal) was 4.09 µM and 6.47 µM. For the same compound, the TGI (SN12C renal) was > 10 µM and 43.4 µM, the GI50 (NCI/ADR-RES ovarian) was 6.28 µM and 4.55 µM and the TGI (NCI/ADR-RES ovarian) was > 10 µM and 56 µM. For the same compound, the GI50 (ACHN renal) was 3.39 µM and 2.92 µM, the TGI (ACHN renal) was > 10 µM and 18.8 µM and the GI50 (SNB-75 CNS) was 0.679 µM and 0.531 µM. The TGI (SNB-75 CNS) was > 10 µM and 10.5 µM, the GI50 (T-47D breast) was 0.211 µM and 0.224 µM and the TGI (T-47D breast) was 1.91 µM and 3.88 µM. The GI50 (HCC-2998 colon) was > 10 µM and 4.94 µM, the TGI (HCC-2998 colon) was > 10 µM and 19.9 µM and the GI50 (HCT-116 colon) was 2.61 µM and 6.65 µM. For the same compound, the TGI (HCT-116 colon) was > 10 µM and 33.9 µM, the GI50 (SNB-19 CNS) was 6.27 µM and 10.4 µM and the TGI (SNB-19 CNS) was over 100 µM. For the same compound, the GI50 (SK-OV-3 ovarian) was 2.89 µM and 2.13 µM, the TGI (SK-OV-3 ovarian) was > 10 µM and 15.5 µM and the GI50 (PC-3 prostate) was 1.6 µM and 1.98 µM. For the same compound, the TGI (PC-3 prostate) was over 100 µM, the GI50 (NCI-H460 lung) was 3.8 µM and 5.2 µM and the TGI (NCI-H460 lung) was > 10 µM and 23.9 µM. For the same compound, the GI50 (TK-10 renal) was 2.07 µM and 1.38 µM, the TGI (TK-10 renal) was > 10 µM and 12.1 µM and the TGI (MALME-3M melanoma) was > 10 µM and 20 µM. The GI50 (U251 CNS) was 7.5 µM and 8.22 µM, the TGI (U251 CNS) was > 10 µM and 48.5 µM and the GI50 (NCI-H226 lung) was > 10 µM and 11.8 µM. The TGI (NCI-H226 lung) was > 10 µM and 32.8 µM, the GI50 (MCF7 breast) was 1.1 µM and 1.01 µM and the TGI (MCF7 breast) was > 10 µM and 87.7 µM. For the same compound, the GI50 (NCI-H522 lung) was 5.27 µM and 10.5 µM, the TGI (NCI-H522 lung) was > 10 µM and 54.8 µM and the GI50 (RPMI-8226 leukemia) was 3.23 µM and 3.84 µM. The TGI (RPMI-8226 leukemia) was > 10 µM and 31.4 µM, the GI50 (SK-MEL-5 melanoma) was 4.54 µM and 12.3 µM and the TGI (SK-MEL-5 melanoma) was > 10 µM and 29.1 µM. For the same compound, the GI50 (UACC-62 melanoma) was 0.682 µM and 1.38 µM, the TGI (UACC-62 melanoma) was > 10 µM and 23.2 µM and the GI50 (SF-295 CNS) was 2.52 µM and 2.47 µM. For the same compound, the TGI (SF-295 CNS) was > 10 µM and 15.6 µM, the GI50 (COLO 205 colon) was 4.41 µM and 1.8 µM and the TGI (COLO 205 colon) was > 10 µM and 5.23 µM. For the same compound, the GI50 (HT29 colon) was 2.31 µM and 4 µM, the TGI (HT29 colon) was > 10 µM and 43.3 µM and the GI50 (MDA-MB-231 breast) was 5.98 µM and 12.3 µM. The TGI (MDA-MB-231 breast) was > 10 µM and 54.1 µM, the GI50 (SF-539 CNS) was 3.33 µM and 3.36 µM and the TGI (SF-539 CNS) was > 10 µM and 16.4 µM. For the same compound, the GI50 (HL-60(TB) leukemia) was 0.774 µM and 0.813 µM, the TGI (HL-60(TB) leukemia) was > 10 µM and 9.86 µM and the GI50 (OVCAR-5 ovarian) was 8.65 µM and 6.17 µM. The TGI (OVCAR-5 ovarian) was > 10 µM and 28.7 µM, the GI50 (HOP-92 NSCLC) was 0.524 µM and 1.41 µM and the TGI (HOP-92 NSCLC) was 7.35 µM and 20.4 µM. The GI50 (UO-31 renal) was 0.666 µM and 0.981 µM, the TGI (UO-31 renal) was > 10 µM and 13.8 µM and the GI50 (HS 578T breast) was 1.83 µM and 1.26 µM. The TGI (HS 578T breast) was > 10 µM and 46.3 µM, the GI50 (IGROV1 ovarian) was 0.439 µM and 0.722 µM and the TGI (IGROV1 ovarian) was 2.89 µM and 5.47 µM. The GI50 (RXF 393 renal) was 2.02 µM and 1.58 µM, the TGI (RXF 393 renal) was > 10 µM and 9.57 µM and the GI50 (M14 melanoma) was > 10 µM and 11.8 µM. For the same compound, the TGI (M14 melanoma) was > 10 µM and 30.9 µM, the GI50 (HCT-15 colon) was 2.69 µM and 4.68 µM and the TGI (HCT-15 colon) was > 10 µM and 26.4 µM. The GI50 (OVCAR-4 ovarian) was 8.72 µM and 13.3 µM, the TGI (OVCAR-4 ovarian) was > 10 µM and 68.4 µM and the GI50 (SW-620 colon) was 3.14 µM and 11.9 µM. The TGI (SW-620 colon) was > 10 µM and 61 µM, the GI50 (SF-268 CNS) was > 10 µM and 10.1 µM and the TGI (SF-268 CNS) was > 10 µM and 72.2 µM. The GI50 (CAKI-1 renal) was 3.81 µM, the TGI (CAKI-1 renal) was over 10 µM and the GI50 (EKVX NSCLC) was 9.84 µM and 4.67 µM. For the same compound, the TGI (EKVX NSCLC) was over 100 µM, the GI50 (A549 NSCLC) was 8.92 µM and 4.98 µM and the TGI (A549 NSCLC) was > 10 µM and 30.2 µM. The GI50 (BT-549 breast) was 1.6 µM and 1.42 µM, the TGI (BT-549 breast) was > 10 µM and 15.2 µM and the GI50 (SK-MEL-2 melanoma) was > 10 µM and 6.61 µM. For the same compound, the TGI (SK-MEL-2 melanoma) was > 10 µM and 41.1 µM.

From PubChem BioAssay (NCI)
